Measurements as given in article PMC5218480 (PLoS ONE, 2017).

Tested on: MV-4-11 cells
Assay: Gene expression microarray analysis (Affymetrix PrimeView) and GSEA
Type: cell-based, human
Set-up: RFU PODN (11730768_x_at) / Fold change /veh PODN (11730768_x_at) / RFU LINC00158 (11744669_a_at) / Fold change /veh LINC00158 (11744669_a_at) / RFU DUSP10 (11751237_a_at) / Fold change /veh DUSP10 (11751237_a_at) / RFU ID3 (11757404_x_at) / Fold change /veh ID3 (11757404_x_at) / RFU PLEKHG5 (11737974_s_at) / Fold change /veh PLEKHG5 (11737974_s_at) / RFU LRRC4B (11730491_at) / Fold change /veh LRRC4B (11730491_at) / RFU GIMAP4 (11747438_a_at) / Fold change /veh GIMAP4 (11747438_a_at) / RFU KRT8 (11758183_x_at) / Fold change /veh KRT8 (11758183_x_at) / RFU CNN1 (11734310_a_at) / Fold change /veh CNN1 (11734310_a_at) / RFU VPS37D (11726825_at) / Fold change /veh VPS37D (11726825_at) / RFU C10orf10 (11716522_x_at) / Fold change /veh C10orf10 (11716522_x_at) / RFU KIR2DL2 /// KIR2DL4 /// KIR2DL5A /// KIR2DL5B /// KIR2DS1 /// KIR2DS2 /// KIR2DS3 /// KIR2DS4 /// KIR3DL3 /// KIR3DL3 /// KIR3DS1 (11738374_at) / Fold change /veh KIR2DL2 /// KIR2DL4 /// KIR2DL5A /// KIR2DL5B /// KIR2DS1 /// KIR2DS2 /// KIR2DS3 /// KIR2DS4 /// KIR3DL3 /// KIR3DL3 /// KIR3DS1 (11738374_at) / RFU C1QL1 (11718748_at) / Fold change /veh C1QL1 (11718748_at) / RFU TMPRSS4 (11747572_a_at) / Fold change /veh TMPRSS4 (11747572_a_at) / RFU HAMP (11756126_x_at) / Fold change /veh HAMP (11756126_x_at) / RFU RNFT2 (11725882_a_at) / Fold change /veh RNFT2 (11725882_a_at) / RFU NR4A2 (11747474_a_at) / Fold change /veh NR4A2 (11747474_a_at) / RFU ABCC12 (11746883_a_at) / Fold change /veh ABCC12 (11746883_a_at) / RFU TMEM136 (11760407_x_at) / Fold change /veh TMEM136 (11760407_x_at) / RFU CLDN22 /// WWC2 (11732394_at) / Fold change /veh CLDN22 /// WWC2 (11732394_at) / RFU HLA-DPB1 (11760878_x_at) / Fold change /veh HLA-DPB1 (11760878_x_at) / RFU SPINT1 (11716480_a_at) / Fold change /veh SPINT1 (11716480_a_at) / RFU GAP43 (11754022_s_at) / Fold change /veh GAP43 (11754022_s_at) / RFU A4GNT (11735810_at) / Fold change /veh A4GNT (11735810_at) / RFU PRB3 (11715151_x_at) / Fold change /veh PRB3 (11715151_x_at) / RFU TUBB4B (11761932_at) / Fold change /veh TUBB4B (11761932_at) / RFU CAPN14 (11732068_a_at) / Fold change /veh CAPN14 (11732068_a_at) / RFU TMCC2 (11721928_a_at) / Fold change /veh TMCC2 (11721928_a_at) / RFU IRGQ (11745062_a_at) / Fold change /veh IRGQ (11745062_a_at) / RFU FAM174B (11720279_a_at) / Fold change /veh FAM174B (11720279_a_at) / RFU TMPRSS4 (11748680_a_at) / Fold change /veh TMPRSS4 (11748680_a_at) / RFU FAM212B (11763350_a_at) / Fold change /veh FAM212B (11763350_a_at) / RFU PLEKHG5 (11743358_a_at) / Fold change /veh PLEKHG5 (11743358_a_at) / RFU ZSCAN30 (11745921_a_at) / Fold change /veh ZSCAN30 (11745921_a_at) / RFU CMKLR1 (11741424_a_at) / Fold change /veh CMKLR1 (11741424_a_at) / RFU LOC101060620 /// MAPK8IP1 (11723275_at) / Fold change /veh LOC101060620 /// MAPK8IP1 (11723275_at) / RFU SPTSSB (11747773_x_at) / Fold change /veh SPTSSB (11747773_x_at) / RFU PRSS12 (11739890_at) / Fold change /veh PRSS12 (11739890_at) / RFU BIN1 (11741810_x_at) / Fold change /veh BIN1 (11741810_x_at) / RFU WNT11 (11732464_a_at) / Fold change /veh WNT11 (11732464_a_at) / RFU C10orf10 (11716521_a_at) / Fold change /veh C10orf10 (11716521_a_at) / RFU C5orf56 (11738089_at) / Fold change /veh C5orf56 (11738089_at) / RFU CYB561 (11721691_x_at) / Fold change /veh CYB561 (11721691_x_at) / RFU ANKRD19P (11752326_a_at) / Fold change /veh ANKRD19P (11752326_a_at) / RFU OR2T12 /// OR2T33 /// OR2T8 (11738714_s_at) / Fold change /veh OR2T12 /// OR2T33 /// OR2T8 (11738714_s_at) / RFU VCAN (11748164_a_at) / Fold change /veh VCAN (11748164_a_at) / RFU JSRP1 (11732532_at) / Fold change /veh JSRP1 (11732532_at) / RFU KRTAP10-11 (11738290_x_at) / Fold change /veh KRTAP10-11 (11738290_x_at) / RFU MYO3A (11730013_a_at) / Fold change /veh MYO3A (11730013_a_at) / RFU EBF3 (11725865_a_at) / Fold change /veh EBF3 (11725865_a_at) / RFU CAMK2N1 (11719241_x_at) / Fold change /veh CAMK2N1 (11719241_x_at) / RFU C5orf56 (11738088_a_at) / Fold change /veh C5orf56 (11738088_a_at) / RFU OLFML3 (11715873_a_at) / Fold change /veh OLFML3 (11715873_a_at) / RFU LOC100653217 /// NTM (11731650_a_at) / Fold change /veh LOC100653217 /// NTM (11731650_a_at) / RFU MAPK11 (11762145_a_at) / Fold change /veh MAPK11 (11762145_a_at) / RFU FIZ1 (11724087_x_at) / Fold change /veh FIZ1 (11724087_x_at) / RFU OASL (11726364_x_at) / Fold change /veh OASL (11726364_x_at) / RFU SOX15 (11748057_x_at) / Fold change /veh SOX15 (11748057_x_at) / RFU CD79A (11719716_a_at) / Fold change /veh CD79A (11719716_a_at) / RFU HIST1H1D (11736915_at) / Fold change /veh HIST1H1D (11736915_at) / RFU CASKIN2 (11723855_a_at) / Fold change /veh CASKIN2 (11723855_a_at) / RFU LOC730098 (11760151_x_at) / Fold change /veh LOC730098 (11760151_x_at) / RFU OR4N2 (11742367_at) / Fold change /veh OR4N2 (11742367_at) / RFU PRRT2 (11749266_a_at) / Fold change /veh PRRT2 (11749266_a_at) / RFU SNX32 (11753110_a_at) / Fold change /veh SNX32 (11753110_a_at) / RFU CDHR5 (11726645_a_at) / Fold change /veh CDHR5 (11726645_a_at) / RFU RCAN1 (11760418_a_at) / Fold change /veh RCAN1 (11760418_a_at) / RFU FAM167A (11723789_a_at) / Fold change /veh FAM167A (11723789_a_at) / RFU FAM26E (11764081_at) / Fold change /veh FAM26E (11764081_at) / RFU ISYNA1 (11749810_s_at) / Fold change /veh ISYNA1 (11749810_s_at) / RFU ACY1 (11761880_at) / Fold change /veh ACY1 (11761880_at) / RFU 11764098_at / Fold change /veh 11764098_at / RFU SAMD14 (11745864_x_at) / Fold change /veh SAMD14 (11745864_x_at) / RFU NPB (11741838_a_at) / Fold change /veh NPB (11741838_a_at) / RFU TMPRSS6 (11731388_a_at) / Fold change /veh TMPRSS6 (11731388_a_at) / RFU KRTAP10-2 (11738614_at) / Fold change /veh KRTAP10-2 (11738614_at) / RFU ARHGAP8 /// PRR5-ARHGAP8 (11727945_x_at) / Fold change /veh ARHGAP8 /// PRR5-ARHGAP8 (11727945_x_at) / RFU KRTAP5-7 /// NADSYN1 (11734609_at) / Fold change /veh KRTAP5-7 /// NADSYN1 (11734609_at) / RFU RASL12 (11751679_a_at) / Fold change /veh RASL12 (11751679_a_at) / RFU CDKN2B (11736163_a_at) / Fold change /veh CDKN2B (11736163_a_at) / RFU PRF1 (11729649_at) / Fold change /veh PRF1 (11729649_at) / RFU, ZNF638 /// ZNF638-IT1 / Fold change vs veh, ZNF638 /// ZNF638-IT1 / RFU, PANK3 / Fold change vs veh, PANK3 / RFU, SH3YL1 / Fold change vs veh, SH3YL1 / RFU, ZEB2 / Fold change vs veh, ZEB2 / RFU, NRIP1 / Fold change vs veh, NRIP1 / RFU, PTTG1IP / Fold change vs veh, PTTG1IP / RFU, CAPN2 / Fold change vs veh, CAPN2 / RFU, MED14 / Fold change vs veh, MED14 / RFU, SNORA58 / Fold change vs veh, SNORA58 / RFU, C1orf63 / Fold change vs veh, C1orf63 / RFU, LRRFIP1 / Fold change vs veh, LRRFIP1 / RFU, NDUFAF7 / Fold change vs veh, NDUFAF7 / RFU, SLC12A2 / Fold change vs veh, SLC12A2 / RFU, IBTK / Fold change vs veh, IBTK / RFU, ESF1 / Fold change vs veh, ESF1 / Fold change vs veh, TMEM50B / RFU, TAOK1 / Fold change vs veh, TAOK1 / RFU, ACBD3 / Fold change vs veh, ACBD3 / RFU, TMA16 / Fold change vs veh, TMA16 / RFU, RWDD3 / Fold change vs veh, RWDD3 / RFU, BCAT1 / Fold change vs veh, BCAT1 / RFU, EDEM3 / Fold change vs veh, EDEM3 / RFU, TMEM33 / Fold change vs veh, TMEM33 / RFU, WDR75 / Fold change vs veh, WDR75 / RFU, AHCTF1 / Fold change vs veh, AHCTF1 / RFU, TFRC / Fold change vs veh, TFRC / RFU, ZDHHC17 / Fold change vs veh, ZDHHC17 / RFU, NOM1 / Fold change vs veh, NOM1 / RFU, ARL8B / Fold change vs veh, ARL8B / RFU, ZBTB11 / Fold change vs veh, ZBTB11 / RFU, TAMM41 / Fold change vs veh, TAMM41 / RFU, KIAA1704 /// LOC100996395 / Fold change vs veh, KIAA1704 /// LOC100996395 / RFU, ING1 / Fold change vs veh, ING1 / RFU, TRMT61B / Fold change vs veh, TRMT61B / RFU, FUBP3 / Fold change vs veh, FUBP3 / RFU, TP53 / Fold change vs veh, TP53 / RFU, TNKS2 / Fold change vs veh, TNKS2 / RFU, ZFP14 / Fold change vs veh, ZFP14 / RFU, ACTR2 / Fold change vs veh, ACTR2 / RFU, PPP3R1 / Fold change vs veh, PPP3R1 / RFU, PIK3R1 / Fold change vs veh, PIK3R1 / RFU, HNRNPA1 / Fold change vs veh, HNRNPA1 / RFU, RNF170 / Fold change vs veh, RNF170 / RFU, ZNF28 / Fold change vs veh, ZNF28 / RFU, RNGTT / Fold change vs veh, RNGTT / RFU, OGT / Fold change vs veh, OGT / RFU, BRD1 / Fold change vs veh, BRD1 / RFU, MARS / Fold change vs veh, MARS / RFU, ZNF655 / Fold change vs veh, ZNF655 / RFU, FAHD1 / Fold change vs veh, FAHD1 / RFU, BDP1 / Fold change vs veh, BDP1 / RFU, LRRCC1 / Fold change vs veh, LRRCC1 / RFU, ARID1A / Fold change vs veh, ARID1A / RFU, ZNF146 / Fold change vs veh, ZNF146 / RFU, ZNF330 / Fold change vs veh, ZNF330 / RFU, GPN3 / Fold change vs veh, GPN3 / RFU, C9orf123 / Fold change vs veh, C9orf123 / RFU, N4BP2L2 / Fold change vs veh, N4BP2L2 / RFU, ARFIP1 / Fold change vs veh, ARFIP1 / RFU, FAM179B / Fold change vs veh, FAM179B / RFU, BCL10 / Fold change vs veh, BCL10 / RFU, UHRF1BP1L / Fold change vs veh, UHRF1BP1L / RFU, BET1 / Fold change vs veh, BET1 / RFU, CNOT2 / Fold change vs veh, CNOT2 / RFU, ZNF268 / Fold change vs veh, ZNF268 / Fold change vs veh, ZNF507 / RFU, DGCR2 / Fold change vs veh, DGCR2 / RFU, WDSUB1 / Fold change vs veh, WDSUB1 / Fold change vs veh, HSP90B1 /// MIR3652 / RFU, ADSS / Fold change vs veh, ADSS / RFU, GK / Fold change vs veh, GK / RFU, ZNF148 / Fold change vs veh, ZNF148 / RFU, TAF9 / Fold change vs veh, TAF9 / RFU, SLC1A5 / Fold change vs veh, SLC1A5 / RFU, SLMO2 / Fold change vs veh, SLMO2 / RFU, ABCC4 / Fold change vs veh, ABCC4 / RFU, LOC101060439 /// RAP1B / Fold change vs veh, LOC101060439 /// RAP1B / RFU, RFX7 / Fold change vs veh, RFX7 / RFU, GTPBP10 / Fold change vs veh, GTPBP10 / RFU, CNEP1R1 / Fold change vs veh, CNEP1R1 / RFU, BIVM-ERCC5 /// ERCC5 / Fold change vs veh, BIVM-ERCC5 /// ERCC5 / RFU, ILF3 / Fold change vs veh, ILF3 / RFU 11762660_at / Fold change /veh 11762660_at / RFU VCAN (11757783_s_at) / Fold change /veh VCAN (11757783_s_at) / RFU DDX43 (11728927_at) / Fold change /veh DDX43 (11728927_at) / RFU KRT8 (11758188_x_at) / Fold change /veh KRT8 (11758188_x_at) / RFU NKD1 (11759106_at) / Fold change /veh NKD1 (11759106_at) / RFU SRD5A1 (11742802_a_at) / Fold change /veh SRD5A1 (11742802_a_at) / RFU TPSAB1 /// TPSB2 (11721975_s_at) / Fold change /veh TPSAB1 /// TPSB2 (11721975_s_at) / RFU GSTM3 (11746129_a_at) / Fold change /veh GSTM3 (11746129_a_at) / RFU IL23R (11737362_x_at) / Fold change /veh IL23R (11737362_x_at) / RFU TMEM51 (11727254_a_at) / Fold change /veh TMEM51 (11727254_a_at) / RFU PIWIL2 (11732686_x_at) / Fold change /veh PIWIL2 (11732686_x_at) / RFU ORM1 (11744905_x_at) / Fold change /veh ORM1 (11744905_x_at) / RFU CCDC152 (11743942_at) / Fold change /veh CCDC152 (11743942_at) / RFU ECM1 (11717891_a_at) / Fold change /veh ECM1 (11717891_a_at) / RFU IL23R (11748794_a_at) / Fold change /veh IL23R (11748794_a_at) / RFU TNFAIP8L3 (11732012_x_at) / Fold change /veh TNFAIP8L3 (11732012_x_at) / RFU MBOAT4 (11741988_at) / Fold change /veh MBOAT4 (11741988_at) / RFU 11764193_at / Fold change /veh 11764193_at / RFU TMEM53 (11763286_at) / Fold change /veh TMEM53 (11763286_at) / RFU MAGEB2 (11727129_at) / Fold change /veh MAGEB2 (11727129_at) / RFU TMEM200A (11744735_a_at) / Fold change /veh TMEM200A (11744735_a_at) / RFU CCDC152 (11751479_a_at) / Fold change /veh CCDC152 (11751479_a_at) / RFU FAM211A (11726209_a_at) / Fold change /veh FAM211A (11726209_a_at) / RFU RGS16 (11746705_a_at) / Fold change /veh RGS16 (11746705_a_at) / RFU VCAN (11755009_s_at) / Fold change /veh VCAN (11755009_s_at) / RFU RHOB (11743442_s_at) / Fold change /veh RHOB (11743442_s_at) / RFU RGS16 (11720943_a_at) / Fold change /veh RGS16 (11720943_a_at) / RFU RGS16 (11720944_at) / Fold change /veh RGS16 (11720944_at) / RFU, VPS4B / Fold change vs veh, VPS4B / RFU, CREB1 / Fold change vs veh, CREB1 / RFU, DNAJC13 / Fold change vs veh, DNAJC13 / RFU, GNAQ / Fold change vs veh, GNAQ / RFU, CDK5R1 / Fold change vs veh, CDK5R1 / RFU, ZRANB3 / Fold change vs veh, ZRANB3 / RFU, CUL4A / Fold change vs veh, CUL4A / RFU, CCNY / Fold change vs veh, CCNY / RFU, UFL1 / Fold change vs veh, UFL1 / RFU, COG3 / Fold change vs veh, COG3 / RFU, DIAPH2 / Fold change vs veh, DIAPH2 / RFU, SKA2 / Fold change vs veh, SKA2 / RFU, AFF3 / Fold change vs veh, AFF3 / RFU, LMF1 / Fold change vs veh, LMF1 / RFU, IPO11 / Fold change vs veh, IPO11 / RFU, DFFB / Fold change vs veh, DFFB / RFU, FOXP1 / Fold change vs veh, FOXP1 / RFU, CARD8 / Fold change vs veh, CARD8 / RFU, STRN3 / Fold change vs veh, STRN3 / RFU, ADK / Fold change vs veh, ADK / RFU, RASSF2 / Fold change vs veh, RASSF2 / RFU, WIPF1 / Fold change vs veh, WIPF1 / RFU, LARP1B / Fold change vs veh, LARP1B / RFU, RASA1 / Fold change vs veh, RASA1 / RFU, RB1 / Fold change vs veh, RB1 / RFU, PPFIA1 / Fold change vs veh, PPFIA1 / RFU, MAT2A / Fold change vs veh, MAT2A / RFU, CCT5 / Fold change vs veh, CCT5 / RFU, WDR92 / Fold change vs veh, WDR92 / RFU, CUX1 / Fold change vs veh, CUX1 / RFU, TTC7A / Fold change vs veh, TTC7A / RFU, TMEM135 / Fold change vs veh, TMEM135 / RFU, DEPTOR / Fold change vs veh, DEPTOR / RFU, CPM / Fold change vs veh, CPM / RFU, DNAJB6 / Fold change vs veh, DNAJB6 / RFU, CACNA2D3 / Fold change vs veh, CACNA2D3 / RFU, DTX4 / Fold change vs veh, DTX4 / RFU, TFCP2 / Fold change vs veh, TFCP2 / RFU, GMCL1 /// GMCL1P1 / Fold change vs veh, GMCL1 /// GMCL1P1 / RFU, AEBP2 / Fold change vs veh, AEBP2 / RFU, SNHG1 /// SNORD22 /// SNORD25 /// SNORD26 /// SNORD27 /// SNORD28 /// SNORD29 /// SNORD31 / Fold change vs veh, SNHG1 /// SNORD22 /// SNORD25 /// SNORD26 /// SNORD27 /// SNORD28 /// SNORD29 /// SNORD31 / Fold change (Aza/veh), C12orf56 (ProbeSet 11735607_a_at) / Fold change (ACY-1035/veh), C12orf56 (ProbeSet 11735607_a_at) / Fold change (Aza/veh), FGFR1OP (ProbeSet 11751329_s_at) / Fold change (ACY-1035/veh), FGFR1OP (ProbeSet 11751329_s_at) / Fold change (Aza/veh), VPS36 (ProbeSet 11739960_a_at) / Fold change (ACY-1035/veh), VPS36 (ProbeSet 11739960_a_at) / RFU SYPL1 (11715823_x_at) / Fold change /veh SYPL1 (11715823_x_at) / RFU IGFBP7 (11715501_s_at) / Fold change /veh IGFBP7 (11715501_s_at) / RFU REEP3 (11722064_at) / Fold change /veh REEP3 (11722064_at) / RFU IGLL1 (11728026_x_at) / Fold change /veh IGLL1 (11728026_x_at): dose or concentration left out as unconfirmed
Conditions: ProbeSet 11758919_x_at; LIST D

Structure (SMILES): Nc1ncn([C@@H]2O[C@H](CO)[C@@H](O)[C@H]2O)c(=O)n1 [azacitidine]
- RFU, TFCP2: 66.08 RFU
